The test system of this assay is CD2F1 mice, L1210 leukemia ip, survival T/C. Put plainly: NCI In Vivo Anticancer Drug Screen. Data for tumor model L1210 Leukemia (intraperitoneal) in CD2F1 (CDF1) mice. The conditions noted are these: higher = longer survival. The method, boiled down: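 Mice carrying a transplanted tumor received test compound or vehicle alone. The value is the measurement in the treated group divided by that in the vehicle-treated control group.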

Where [1] appears, read: endpoint: mean survival time, dose: 100.0 mg/kg/injection, schedule: Q04DX003 (ip), vehicle: saline.
Setting [2] is: endpoint: mean survival time, dose: 100.0 mg/kg/injection, schedule: Q01DX009 (ip), vehicle: saline with Tween-80.
Where [3] appears, read: endpoint: mean survival time, dose: 100.0 mg/kg/injection, schedule: Q04DX003 (ip), vehicle: saline with Tween-80.
Setting [4] is: endpoint: mean survival time, dose: 200.0 mg/kg/injection, schedule: Q01DX009 (ip), vehicle: saline with Tween-80.
[5] abbreviates: endpoint: mean survival time, dose: 200.0 mg/kg/injection, schedule: Q04DX003 (ip), vehicle: saline with Tween-80.
Where [6] appears, read: endpoint: mean survival time, dose: 400.0 mg/kg/injection, schedule: Q04DX003 (ip), vehicle: saline with Tween-80.

Values joined by “and” are separate entries in the source; they are usually repeats but may differ in a detail not shown here. Equal entries are not always repeated. Inconclusive results and toxic doses are left out.

With `O=C1C(Cl)=C(Cl)C(=O)c2ccccc21`, the T/C was 98 % of control (endpoint: mean survival time, dose: 5.0 mg/kg/injection, schedule: Q04DX003 (ip), vehicle: saline with Tween-80); 93 % of control (endpoint: mean survival time, dose: 10.0 mg/kg/injection, schedule: Q04DX003 (ip), vehicle: saline with Tween-80); 101 % of control (endpoint: mean survival time, dose: 20.0 mg/kg/injection, schedule: Q04DX003 (ip), vehicle: saline with Tween-80).

As for `CN(Cc1cnc2nc(N)nc(N)c2n1)c1ccc(C(=O)NC(CCC(=O)NC(CCC(=O)NC(CCC(=O)NC(CCC(=O)O)C(=O)O)C(=O)O)C(=O)O)C(=O)O)cc1` (stereo unspecified), the T/C (endpoint: mean survival time, dose: 0.5 mg/kg/injection, schedule: Q01DX005 (ip), vehicle: sodium bicarbonate) was 102 % of control; the T/C (endpoint: mean survival time, dose: 1.0 mg/kg/injection, schedule: Q01DX005 (ip), vehicle: sodium bicarbonate) was 114 % of control and 111 % of control; the T/C (endpoint: mean survival time, dose: 2.0 mg/kg/injection, schedule: Q01DX005 (ip), vehicle: sodium bicarbonate) was 118 % of control.

On to `CCOC1CC2c3ccccc3C1c1cccc[n+]12` (stereo unspecified), for which the T/C under setting [1] is 104 % of control.

`N#CC(OC(=O)c1ccccc1)c1cccc([N+](=O)[O-])c1` (stereo unspecified): the T/C is 98 % of control under setting [2]; 101 % of control under setting [3]; 96 % of control under setting [4]; 96 % of control under setting [5]; 100 % of control under setting [6].

On to `COc1cc(OC)c(NC(=O)OCCOc2ccc(Cl)cc2Cl)cc1Cl`, for which the T/C by setting is: (endpoint: mean survival time, dose: 50.0 mg/kg/injection, schedule: Q01DX009 (ip), vehicle: saline with Tween-80) 92 % of control; under setting [2], 88 % of control.

In the case of `O=c1c2ccccc2sc2cccc(Sc3ccccc3)c12`, the T/C is, setting by setting: under setting [3], 95 % of control; under setting [5], 96 % of control; under setting [6], 91 % of control.

As to `O=C1N[C@@H]2C(=C[C@H](O)[C@@H](O)[C@H]2O)c2cc3c(c(O)c21)OCO3`, the T/C by setting is: (endpoint: median survival time, dose: 0.62 mg/kg/injection, schedule: Q01DX009 (ip), vehicle: saline with Tween-80) 110 % of control; (endpoint: median survival time, dose: 1.25 mg/kg/injection, schedule: Q01DX009 (ip), vehicle: saline with Tween-80) 108 % of control; (endpoint: median survival time, dose: 2.5 mg/kg/injection, schedule: Q01DX009 (ip), vehicle: saline with Tween-80) 113 % of control; (endpoint: median survival time, dose: 5.0 mg/kg/injection, schedule: Q01DX009 (ip), vehicle: saline with Tween-80) 115 % of control.

Turning to `N#C[S-].N#C[S-].[Au+3].[Au+3].[CH3-].[CH3-].[CH3-].[CH3-]`, the T/C runs as follows: under setting [3], 96 % of control; under setting [5], 98 % of control.

For the compound `N#CCC(=O)N/N=C/c1ccccc1`, the T/C was 91 % of control under setting [2] and 86 % of control under setting [4].

Regarding `COc1cc2ccnc(Cc3ccc4c(c3)OCO4)c2cc1OC`, the T/C by setting is: (endpoint: mean survival time, dose: 100.0 mg/kg/injection, schedule: Q01DX009 (ip), vehicle: saline) 94 % of control; (endpoint: mean survival time, dose: 100.0 mg/kg/injection, schedule: Q04DX003 (ip), vehicle: saline sonified) 95 % of control; (endpoint: mean survival time, dose: 200.0 mg/kg/injection, schedule: Q01DX009 (ip), vehicle: saline) 95 % of control; (endpoint: mean survival time, dose: 200.0 mg/kg/injection, schedule: Q04DX003 (ip), vehicle: saline sonified) 105 % of control; (endpoint: mean survival time, dose: 400.0 mg/kg/injection, schedule: Q01DX009 (ip), vehicle: saline) 95 % of control; (endpoint: mean survival time, dose: 400.0 mg/kg/injection, schedule: Q04DX003 (ip), vehicle: saline sonified) 93 % of control.

For the compound `Nc1nc(F)nc2c1ncn2C1OC(CO)C(O)C1O` (stereo unspecified), the T/C is, setting by setting: (endpoint: mean survival time, dose: 100.0 mg/kg/injection, schedule: Q01DX001 (ip), vehicle: other) 105 % of control; (endpoint: mean survival time, dose: 111.0 mg/kg/injection, schedule: Q01DX009 (ip), vehicle: saline with Tween-80) 187 % of control; (endpoint: mean survival time, dose: 133.0 mg/kg/injection, schedule: Q01DX005 (ip), vehicle: saline with Tween-80) 154 % of control; (endpoint: mean survival time, dose: 133.0 mg/kg/injection, schedule: Q01DX009 (ip), vehicle: saline with Tween-80) 227 % of control and 276 % of control; (endpoint: mean survival time, dose: 156.0 mg/kg/injection, schedule: Q01DX009 (ip), vehicle: saline with Tween-80) 393 % of control; (endpoint: mean survival time, dose: 178.0 mg/kg/injection, schedule: Q01DX005 (ip), vehicle: saline with Tween-80) 179 % of control. In addition, the T/C reads like this: (endpoint: mean survival time, dose: 178.0 mg/kg/injection, schedule: Q01DX009 (ip), vehicle: saline with Tween-80) 473 % of control; (endpoint: mean survival time, dose: 200.0 mg/kg/injection, schedule: Q01DX001 (ip), vehicle: other) 109 % of control; under setting [4], 563 % of control; (endpoint: mean survival time, dose: 222.0 mg/kg/injection, schedule: Q01DX009 (ip), vehicle: saline with Tween-80) 333 % of control; (endpoint: mean survival time, dose: 400.0 mg/kg/injection, schedule: Q01DX001 (ip), vehicle: other) 105 % of control.

As for `COC(=O)Nc1nc2ccc(C(=O)c3cccs3)cc2[nH]1`, the T/C (endpoint: mean survival time, dose: 10.0 mg/kg/injection, schedule: Q04DX003 (ip), vehicle: Klucel (hydroxypropylcellulose) (HPC)) was 105 % of control; the T/C (endpoint: mean survival time, dose: 10.0 mg/kg/injection, schedule: Q04DX003 (ip), vehicle: other) was 107 % of control; the T/C (endpoint: mean survival time, dose: 20.0 mg/kg/injection, schedule: Q04DX003 (ip), vehicle: Klucel (hydroxypropylcellulose) (HPC)) is 110 % of control; the T/C (endpoint: mean survival time, dose: 40.0 mg/kg/injection, schedule: Q04DX003 (ip), vehicle: Klucel (hydroxypropylcellulose) (HPC)) is 120 % of control; the T/C (endpoint: mean survival time, dose: 40.0 mg/kg/injection, schedule: Q04DX003 (ip), vehicle: other) was 110 % of control; the T/C (endpoint: mean survival time, dose: 60.0 mg/kg/injection, schedule: Q04DX003 (ip), vehicle: saline) was 221 % of control. For the same compound, the T/C (endpoint: mean survival time, dose: 80.0 mg/kg/injection, schedule: Q04DX003 (ip), vehicle: Klucel (hydroxypropylcellulose) (HPC)) is 98 % of control and the T/C (endpoint: mean survival time, dose: 90.0 mg/kg/injection, schedule: Q04DX003 (ip), vehicle: saline) was 121 % of control.

`COc1cccc2c1C(=O)c1c(OC)c(CBr)cc(OC)c1C2=O`: the T/C reads like this: (endpoint: mean survival time, dose: 12.5 mg/kg/injection, schedule: Q01DX005 (ip), vehicle: other) 96 % of control; (endpoint: mean survival time, dose: 25.0 mg/kg/injection, schedule: Q01DX005 (ip), vehicle: other) 101 % of control; (endpoint: mean survival time, dose: 50.0 mg/kg/injection, schedule: Q01DX005 (ip), vehicle: other) 96 % of control; (endpoint: mean survival time, dose: 100.0 mg/kg/injection, schedule: Q01DX005 (ip), vehicle: other) 86 % of control.

In the case of `NNc1nc2c(=O)[nH]cnc2n1C1OC(CO)C(O)C1O` (stereo unspecified), the T/C by setting is: (endpoint: mean survival time, dose: 12.5 mg/kg/injection, schedule: Q01DX005 (ip), vehicle: distilled water + Tween-80) 98 % of control; (endpoint: mean survival time, dose: 25.0 mg/kg/injection, schedule: Q01DX005 (ip), vehicle: distilled water + Tween-80) 98 % of control; (endpoint: mean survival time, dose: 50.0 mg/kg/injection, schedule: Q01DX005 (ip), vehicle: distilled water + Tween-80) 100 % of control; (endpoint: mean survival time, dose: 100.0 mg/kg/injection, schedule: Q01DX005 (ip), vehicle: distilled water + Tween-80) 107 % of control; (endpoint: mean survival time, dose: 200.0 mg/kg/injection, schedule: Q01DX005 (ip), vehicle: distilled water + Tween-80) 104 % of control.

As to `CN(C)CCCNC1CCC(NCCCN(C)C)CC1` (stereo unspecified), the T/C (endpoint: mean survival time, dose: 25.0 mg/kg/injection, schedule: Q01DX009 (ip), vehicle: saline) was 96 % of control and the T/C under setting [1] is 98 % of control.

As for `C[C@@H]1C[C@H]2[C@@H]3CCC4=CC(=O)C=C[C@]4(C)[C@@]3(F)[C@@H](O)C[C@]2(C)[C@@]1(O)C(=O)CO`, the T/C reads like this: (endpoint: mean survival time, dose: 3.12 mg/kg/injection, schedule: Q01DX009 (ip), vehicle: suspension in saline) 116 % of control; (endpoint: mean survival time, dose: 6.25 mg/kg/injection, schedule: Q01DX009 (ip), vehicle: suspension in saline) 108 % of control; (endpoint: mean survival time, dose: 12.5 mg/kg/injection, schedule: Q01DX009 (ip), vehicle: suspension in saline) 108 % of control; (endpoint: mean survival time, dose: 25.0 mg/kg/injection, schedule: Q01DX009 (ip), vehicle: suspension in saline) 122 % of control; (endpoint: mean survival time, dose: 50.0 mg/kg/injection, schedule: Q01DX009 (ip), vehicle: suspension in saline) 110 % of control.

As for `O=C1OC(c2ccccc2)(c2ccccc2)C(=O)N1c1ccc(Br)cc1`, the T/C is, setting by setting: (endpoint: median survival time, dose: 3.13 mg/kg/injection, schedule: Q04DX002 (ip), vehicle: saline with Tween-80) 100 % of control; (endpoint: median survival time, dose: 6.25 mg/kg/injection, schedule: Q04DX002 (ip), vehicle: saline with Tween-80) 100 % of control; (endpoint: median survival time, dose: 12.5 mg/kg/injection, schedule: Q04DX002 (ip), vehicle: saline with Tween-80) 111 % of control; (endpoint: median survival time, dose: 25.0 mg/kg/injection, schedule: Q04DX002 (ip), vehicle: saline with Tween-80) 111 % of control; (endpoint: median survival time, dose: 25.0 mg/kg/injection, schedule: Q04DX003 (ip), vehicle: saline with Tween-80) 94 % of control.

For the origin of these results see PubChem BioAssay AID256 (DTP/NCI, 2004).
